{"source": "paper PMC10941186", "about": "“Real-Time Biosynthetic Reaction Monitoring Informs the Mechanism of Action of Antibiotics” (Journal of the American Chemical Society, 2024)", "format_in_all_cases": "biochemical", "key": {"UppP": {"target": "T1, UppP (Escherichia coli, UniProt P60932)", "T1 construct": "expressed and purified from E. coli membranes, LDAO micelles, delipidated for activity", "T1 sequence (P60932 1-273)": "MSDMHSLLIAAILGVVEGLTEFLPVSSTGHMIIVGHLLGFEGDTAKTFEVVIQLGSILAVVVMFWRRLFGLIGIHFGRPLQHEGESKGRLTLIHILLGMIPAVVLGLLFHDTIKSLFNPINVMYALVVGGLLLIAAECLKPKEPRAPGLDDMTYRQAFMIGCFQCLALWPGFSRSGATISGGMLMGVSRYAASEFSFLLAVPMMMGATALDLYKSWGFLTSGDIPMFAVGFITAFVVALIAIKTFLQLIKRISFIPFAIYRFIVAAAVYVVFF", "assay": "native mass spectrometry, real-time reaction monitoring"}, "PgpB^Ec": {"target": "T2, PgpB^Ec (Escherichia coli, UniProt P0A924)", "T2 construct": "expressed and purified from E. coli membranes, LDAO micelles; monomer; tag details not given (PgpB-his plasmid used in cells)", "T2 sequence (P0A924 2-254)": "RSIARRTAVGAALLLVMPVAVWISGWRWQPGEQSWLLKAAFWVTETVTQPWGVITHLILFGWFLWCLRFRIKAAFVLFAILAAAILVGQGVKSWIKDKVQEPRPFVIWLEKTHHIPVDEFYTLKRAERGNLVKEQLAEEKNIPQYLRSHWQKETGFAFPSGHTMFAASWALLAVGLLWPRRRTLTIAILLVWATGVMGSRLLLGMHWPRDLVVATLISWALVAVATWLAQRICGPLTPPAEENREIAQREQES", "assay": "native mass spectrometry, real-time reaction monitoring"}, "PgpB^Bs": {"target": "T3, PgpB^Bs (Bacillus subtilis, UniProt O34349)", "T3 construct": "expressed in E. coli, purified, LDAO micelles; monomer; tag details not given", "T3 sequence (O34349 1-203)": "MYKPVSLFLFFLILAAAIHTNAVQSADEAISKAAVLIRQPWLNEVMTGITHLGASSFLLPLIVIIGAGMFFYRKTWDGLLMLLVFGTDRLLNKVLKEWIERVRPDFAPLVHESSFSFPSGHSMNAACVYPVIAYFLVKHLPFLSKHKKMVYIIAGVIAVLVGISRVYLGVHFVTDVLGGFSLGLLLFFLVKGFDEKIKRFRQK", "assay": "native mass spectrometry, real-time reaction monitoring"}, "YbjG": {"target": "T4, YbjG (Escherichia coli, UniProt P75806)", "T4 construct": "construct details only in supplement", "T4 sequence (P75806 1-198)": "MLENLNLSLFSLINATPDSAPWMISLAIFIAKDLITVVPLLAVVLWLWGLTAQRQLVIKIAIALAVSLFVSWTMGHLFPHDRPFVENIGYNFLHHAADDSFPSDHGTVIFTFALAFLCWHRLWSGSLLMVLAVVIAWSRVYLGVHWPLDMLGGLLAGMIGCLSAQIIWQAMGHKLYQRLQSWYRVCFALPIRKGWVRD", "assay": "thin-layer chromatography phosphatase assay", "settings": "unaffected by EDTA or CaCl2"}, "[1]": {"settings": "within 1 min, only enzyme-product complexes seen"}}, "data": [{"smiles": "CC(C)=CCC/C(C)=C/CC/C(C)=C/CC/C(C)=C\\CC/C(C)=C\\CC/C(C)=C\\CC/C(C)=C\\CC/C(C)=C\\CC/C(C)=C\\CC/C(C)=C\\CC/C(C)=C\\COP(=O)(O)O", "note": "[C55-P]", "values": [{"measurement": "native mass spectrometry, real-time reaction monitoring", "setting": "UppP; product formed in situ from C55-PP", "value": "only the C55-P product was observed in complex with the protein"}]}, {"smiles": "CCCCCCCC/C=C\\CCCCCCCC(=O)OC[C@H](COP(=O)(O)O)OC(=O)CCCCCCC/C=C\\CCCCCCCC", "note": "[DGP, 1,2-dioleoylglycerol monophosphate]", "values": [{"measurement": "native mass spectrometry, real-time reaction monitoring", "setting": "PgpB^Ec; product formed in situ from DGPP, ternary complex with DGPP", "value": "ternary complex formed by PgpB^Ec with the substrate DGPP and the monophosphorylated product DGP"}]}, {"smiles": "CCCCCCCC/C=C\\CCCCCCCC(=O)OC[C@@H](O)COP(=O)(O)O", "note": "[LPA]", "values": [{"measurement": "native mass spectrometry, real-time reaction monitoring", "setting": "PgpB^Bs; 3.5 uM protein with 50 uM LPA, 5 uM with 20 uM (Figure 2C)", "value": "The resulting spectra exhibited a progressive loss of protein-bound LPA as a function of time"}]}, {"smiles": "CC(C)=CCC/C(C)=C/CC/C(C)=C/CC/C(C)=C/CC/C(C)=C/CC/C(C)=C/CC/C(C)=C/CC/C(C)=C/CC/C(C)=C/CC/C(C)=C/CC/C(C)=C/COP(=O)(O)OP(=O)(O)O", "note": "[C55-PP]", "values": [{"measurement": "thin-layer chromatography phosphatase assay", "setting": "YbjG", "value": "the activity of YbjG against C55-PP is unaffected by EDTA or CaCl2"}, {"measurement": "native mass spectrometry, real-time reaction monitoring", "setting": "PgpB^Bs; [1]", "value": "We next examined the activity of PgpB of B. subtilis (PgpB^Bs) toward DGPP and C55-PP"}, {"measurement": "native mass spectrometry, real-time reaction monitoring", "setting": "PgpB^Ec; 3.5 uM protein, 10 uM C55-PP, slowly processed", "value": "we observe intense binding of C55-PP molecules to the enzyme"}]}, {"smiles": "CCCCCCCC/C=C\\CCCCCCCC(=O)OC[C@H](COP(=O)(O)OP(=O)(O)O)OC(=O)CCCCCCC/C=C\\CCCCCCCC", "note": "[DGPP, 1,2-dioleoylglycerol diphosphate]", "values": [{"measurement": "native mass spectrometry, real-time reaction monitoring", "setting": "UppP; poorly processed substrate", "value": "The resultant spectra are dominated by peaks assigned to the bound substrate."}, {"measurement": "native mass spectrometry, real-time reaction monitoring", "setting": "PgpB^Bs; [1]", "value": "peaks assigned to enzyme–product complexes with no residual substrate"}, {"measurement": "native mass spectrometry, real-time reaction monitoring", "setting": "PgpB^Ec; 3.5 uM protein, 10 uM DGPP, stoichiometries 1:1 to 1:4, activity independent of divalent cations", "value": "DGPP incubated with PgpB^Ec exhibited intense peaks corresponding to the enzyme–substrate and enzyme–product complexes"}]}, {"smiles": "CC(C)=CCC/C(C)=C/CC/C(C)=C/COP(=O)(O)OP(=O)(O)O", "note": "[C15-PP]", "values": [{"measurement": "native mass spectrometry, real-time reaction monitoring", "setting": "UppP; 3.5 uM delipidated protein, 50 uM C15-PP", "value": "peaks corresponding to ligand-free UppP and multiple enzyme–substrate complexes (UppP)(C15-PP)n"}]}]}
